Results as given in patent US12281363B2, “Methods for detecting antiviral-drug resistant virus” (Secretary of State for Health and Social Care, priority 2018, dated 2025).
Like-named read-outs stand apart in the source and are kept apart here.

Test system: HSV-1
Assay: Plaque reduction assay, HSV-1 clinical isolates on Vero cells
Assay type: cell-based
Conditions: Human alphaherpesvirus 1, Vero
Description: Viral isolates were used to infect a sub-confluent monolayer of Vero cells at a concentration of 75 or 50 plaque forming units (PFU) per well for HSV-1 and HSV-2, respectively. […] CMC medium typically used to create a semisolid interface and prevents indiscrimate viral spreading. Other materials (e.g. agar) may also be used to create this interface.
Cells were fixed with 10% formalin and stained with crystal violet before enumeration of the plaques (microscopic observation or use of fluorescent antibodies for detection is also suitable). The data obtained from these experiments were then expressed as percent inhibition of viral infectivity relative to the no drug control.
Definitions of phenotypic drug susceptibility classification as sensitive or resistant were as follows: ACV, <3 μM or >40 μM; PCV, <10 μM or >40 μM; CDV, <24 μM or >30 μM; FOS, <250 μM or >400 μM; and ACV, <6.5 μM or >40 μM; PCV, <38 μM or >40 μM; FOS, <250 μM or >400 μM for HSV-1 and HSV-2, respectively. Any IC50 values falling in between these sensitive and resistant cut-offs were reported as intermediate resistance.
The phenotype (i.e. reactivity to a drug) of the virus was characterised by the plaque reduction assay as described above.

For Nc1ccn(C[C@@H](CO)OCP(=O)(O)O)c(=O)n1 [Cidofovir, cidofovir], the IC50 (72 h, isolate HPG053, HSV-1 pol L802R + A834S (2405T>G, 2500G>T), also TK R176W, read-out: Drug susceptibility (IC50 value)) was 7.72 µM, the IC50 (isolate HPG002, HSV-1 pol E992K (2974G>A), also TK insert (G) nt 430-436, pol A1169T, read-out: Drug susceptibility (IC50 value)) was 6.09 µM and the IC50 (isolate HPG002, HSV-1 pol E992K (2974G>A), also TK insert (G) nt 430-436, pol A1169T, read-out: Drug susceptibility Cidofovir (CDV)) was under 24 µM. It also gave an IC50 (isolate HPG003, HSV-1 TK Y172S (515A>C), read-out: Drug susceptibility (IC50 value)) of under 1.56 µM, an IC50 (isolate HPG003, HSV-1 TK Y172S (515A>C), read-out: Drug susceptibility Cidofovir (CDV)) of under 24 µM and an IC50 (isolate HPG005, HSV-1 TK A37V (110C>T), read-out: Drug susceptibility (IC50 value)) of 2.21 µM. For the same compound, the IC50 (isolate HPG005, HSV-1 TK A37V (110C>T), read-out: Drug susceptibility Cidofovir (CDV)) was under 24 µM, the IC50 (isolate HPG008, HSV-1 TK V204G (611T>G), read-out: Drug susceptibility (IC50 value)) was 3.56 µM and the IC50 (isolate HPG008, HSV-1 TK V204G (611T>G), read-out: Drug susceptibility Cidofovir (CDV)) was under 24 µM. It also gave an IC50 (isolate HPG009, HSV-1 pol E992K (2974G>A), also pol A1169T, read-out: Drug susceptibility (IC50 value)) of 9.44 µM, an IC50 (isolate HPG009, HSV-1 pol E992K (2974G>A), also pol A1169T, read-out: Drug susceptibility Cidofovir (CDV)) of under 24 µM and an IC50 (isolate HPG010, HSV-1 TK Q125* (373C>T), read-out: Drug susceptibility (IC50 value)) of under 1.56 µM. It also gave an IC50 (isolate HPG010, HSV-1 TK Q125* (373C>T), read-out: Drug susceptibility Cidofovir (CDV)) of under 24 µM, an IC50 (isolate HPG011, HSV-1 TK Q125* (373C>T), read-out: Drug susceptibility (IC50 value)) of under 1.56 µM and an IC50 (isolate HPG011, HSV-1 TK Q125* (373C>T), read-out: Drug susceptibility Cidofovir (CDV)) of under 24 µM. For the same compound, the IC50 (isolate HPG013, HSV-1 TK M121I (363G>A), read-out: Drug susceptibility (IC50 value)) was 3.11 µM, the IC50 (isolate HPG013, HSV-1 TK M121I (363G>A), read-out: Drug susceptibility Cidofovir (CDV)) was under 24 µM and the IC50 (isolate HPG013, HSV-1 pol D83A (248A>C), also TK M121I, pol A1169T, read-out: Drug susceptibility (IC50 value)) was 3.11 µM. The IC50 (isolate HPG013, HSV-1 pol D83A (248A>C), also TK M121I, pol A1169T, read-out: Drug susceptibility Cidofovir (CDV)) was under 24 µM, the IC50 (isolate HPG014, HSV-1 pol A1115T (3343G>A), read-out: Drug susceptibility (IC50 value)) was 17.2 µM and the IC50 (isolate HPG014, HSV-1 pol A1115T (3343G>A), read-out: Drug susceptibility Cidofovir (CDV)) was under 24 µM. It also gave an IC50 (isolate HPG014, HSV-1 pol R993C (2977C>T), read-out: Drug susceptibility (IC50 value)) of 17.2 µM, an IC50 (isolate HPG014, HSV-1 pol R993C (2977C>T), read-out: Drug susceptibility Cidofovir (CDV)) of under 24 µM and an IC50 (isolate HPG014, HSV-1 pol T54A (160A>G), read-out: Drug susceptibility (IC50 value)) of 17.2 µM. The IC50 (isolate HPG014, HSV-1 pol T54A (160A>G), read-out: Drug susceptibility Cidofovir (CDV)) was under 24 µM, the IC50 (isolate HPG015, HSV-1 pol 966stop or F965_I966insF (2892_2893insT to 2895_2896insT), read-out: Drug susceptibility (IC50 value)) was 45.1 µM and the IC50 (isolate HPG015, HSV-1 pol 966stop or F965_I966insF (2892_2893insT to 2895_2896insT), read-out: Drug susceptibility Cidofovir (CDV)) was over 30 µM. For the same compound, the IC50 (isolate HPG018, HSV-1 TK frameshift (881delC to 885delC), read-out: Drug susceptibility (IC50 value)) was 3.03 µM, the IC50 (isolate HPG018, HSV-1 TK frameshift (881delC to 885delC), read-out: Drug susceptibility Cidofovir (CDV)) was under 24 µM and the IC50 (isolate HPG018, HSV-1 pol P1199T (3595C>A), also TK deletion (C) nt 881-885, pol A1169T, read-out: Drug susceptibility (IC50 value)) was 3.03 µM. For the same compound, the IC50 (isolate HPG018, HSV-1 pol P1199T (3595C>A), also TK deletion (C) nt 881-885, pol A1169T, read-out: Drug susceptibility Cidofovir (CDV)) was under 24 µM, the IC50 (isolate HPG019, HSV-1 pol K750T (2249A>C), also TK deletion (G) nt 430-436, pol A1169T, read-out: Drug susceptibility (IC50 value)) was 20.4 µM and the IC50 (isolate HPG019, HSV-1 pol K750T (2249A>C), also TK deletion (G) nt 430-436, pol A1169T, read-out: Drug susceptibility Cidofovir (CDV)) was under 24 µM. It also gave an IC50 (isolate HPG020, HSV-1 pol S911N (2732G>A), also pol A1169T, read-out: Drug susceptibility (IC50 value)) of 4.38 µM, an IC50 (isolate HPG020, HSV-1 pol S911N (2732G>A), also pol A1169T, read-out: Drug susceptibility Cidofovir (CDV)) of under 24 µM and an IC50 (isolate HPG021, HSV-1 pol R681Q (2042G>A), also TK deletion (G) nt 430-436, read-out: Drug susceptibility (IC50 value)) of under 1.56 µM. For the same compound, the IC50 (isolate HPG021, HSV-1 pol R681Q (2042G>A), also TK deletion (G) nt 430-436, read-out: Drug susceptibility Cidofovir (CDV)) was under 24 µM, the IC50 (isolate HPG021, HSV-1 pol T839A (2515A>G), also TK deletion (G) nt 430-436, read-out: Drug susceptibility (IC50 value)) was under 1.56 µM and the IC50 (isolate HPG021, HSV-1 pol T839A (2515A>G), also TK deletion (G) nt 430-436, read-out: Drug susceptibility Cidofovir (CDV)) was under 24 µM. The IC50 (isolate HPG025, HSV-1 pol E850Q (2548G>C), also TK R216C, read-out: Drug susceptibility (IC50 value)) was under 1.56 µM, the IC50 (isolate HPG025, HSV-1 pol E850Q (2548G>C), also TK R216C, read-out: Drug susceptibility Cidofovir (CDV)) was under 24 µM and the IC50 (isolate HPG026, HSV-1 pol E850Q (2548G>C), also TK R216C, pol A1169T, read-out: Drug susceptibility (IC50 value)) was under 1.56 µM. The IC50 (isolate HPG026, HSV-1 pol E850Q (2548G>C), also TK R216C, pol A1169T, read-out: Drug susceptibility Cidofovir (CDV)) was under 24 µM, the IC50 (isolate HPG027, HSV-1 TK V204G (611T>G), also pol S914L, A1169AT, read-out: Drug susceptibility (IC50 value)) was 3.93 µM and the IC50 (isolate HPG027, HSV-1 TK V204G (611T>G), also pol S914L, A1169AT, read-out: Drug susceptibility Cidofovir (CDV)) was under 24 µM. For the same compound, the IC50 (isolate HPG027, HSV-1 pol S914L (2741C>T), also TK V204G, pol A1169T, read-out: Drug susceptibility (IC50 value)) was 3.93 µM, the IC50 (isolate HPG027, HSV-1 pol S914L (2741C>T), also TK V204G, pol A1169T, read-out: Drug susceptibility Cidofovir (CDV)) was under 24 µM and the IC50 (isolate HPG029, HSV-1 TK Y172S (515A>C), read-out: Drug susceptibility (IC50 value)) was 2.99 µM. For the same compound, the IC50 (isolate HPG029, HSV-1 TK Y172S (515A>C), read-out: Drug susceptibility Cidofovir (CDV)) was under 24 µM, the IC50 (isolate HPG031, HSV-1 pol E1120A (3359A>C), also a TK resistance mutation (footnote e), read-out: Drug susceptibility (IC50 value)) was 4.8 µM and the IC50 (isolate HPG031, HSV-1 pol E1120A (3359A>C), also a TK resistance mutation (footnote e), read-out: Drug susceptibility Cidofovir (CDV)) was under 24 µM. It also gave an IC50 (isolate HPG031, HSV-1 pol G139R (415G>C or 415G>A), also a TK resistance mutation (footnote e), read-out: Drug susceptibility (IC50 value)) of 4.8 µM, an IC50 (isolate HPG031, HSV-1 pol G139R (415G>C or 415G>A), also a TK resistance mutation (footnote e), read-out: Drug susceptibility Cidofovir (CDV)) of under 24 µM and an IC50 (isolate HPG032, HSV-1 TK 183* (437_438insA), read-out: Drug susceptibility (IC50 value)) of 3.61 µM.
